pIC50: −log10 of the molar value.
Legend:
[1] = molecular target: T1, Human CD73 (amino acid residues 27-549) (Homo sapiens, UniProt P21589); test: CD73 enzymatic assay (luciferase-based indirect assay, CellTiter-Glo); type: biochemical; conditions: 0.4 nM CD73, 150 μM AMP, 1 hour at room temperature
T1 construct: Human CD73 (amino acid residues 27-549); His tag (N); made in house; host or cells: E. coli
T1 sequence (P21589 27-549): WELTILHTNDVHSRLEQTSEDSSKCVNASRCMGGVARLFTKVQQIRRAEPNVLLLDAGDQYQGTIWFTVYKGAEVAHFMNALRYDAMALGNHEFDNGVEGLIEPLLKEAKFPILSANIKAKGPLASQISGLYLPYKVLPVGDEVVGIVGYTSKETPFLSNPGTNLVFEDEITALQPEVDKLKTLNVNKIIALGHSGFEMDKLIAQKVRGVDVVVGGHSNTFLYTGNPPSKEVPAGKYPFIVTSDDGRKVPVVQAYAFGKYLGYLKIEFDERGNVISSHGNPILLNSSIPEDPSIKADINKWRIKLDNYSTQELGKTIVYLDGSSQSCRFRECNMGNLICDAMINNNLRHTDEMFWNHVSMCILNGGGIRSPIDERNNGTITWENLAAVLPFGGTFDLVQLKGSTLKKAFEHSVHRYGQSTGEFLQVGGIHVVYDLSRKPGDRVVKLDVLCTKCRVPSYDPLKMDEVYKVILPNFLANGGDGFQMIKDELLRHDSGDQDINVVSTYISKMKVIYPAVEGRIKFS
Outline: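 N-His human CD73 (27-549) expressed in E. coli, 0.4 nM, incubated with 150 μM AMP and compound in 50 mM HEPES pH 7.4, 0.01% Tween-20, 1 h at RT. Remaining AMP read via CellTiter-Glo luminescence with 1 μM ATP after 30 min; IC50 from nonlinear regression of % inhibition.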

human CD73 = molecular target: T2, human CD73 (Homo sapiens, UniProt P21589); test: Inhibitor activity against CD73 in cell based assay (CD73 expressing CHO-K1 cells); conditions: CHO-K1 cells expressing human CD73, 150 μM AMP, 4 hours of incubation; read-out: CHO-K1 CELL_VARIANT: CD73 IC50
T2 construct: expressed in transfected cells
T2 sequence (P21589 27-549): T1 sequence (P21589 27-549)
Outline: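 Stable human CD73 CHO-K1 cells, 1×10^4/well, exposed to an 8-point 1:3 compound series (top 10 μM, 0.2% DMSO) plus 150 μM AMP for 4 h. Remaining AMP in the supernatant was read by CellTiter-Glo 2.0 luminescence with 1 μM ATP after 30 min at room temperature. IC50 came from nonlinear regression of % inhibition against cell and media-only controls.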

SMILES	pIC50 [1]	pIC50 (human CD73)
Cc1nn(CC(C)(C)O)c(C)c1-c1ccnc(O[C@H]2CN(c3cnn(CCO)c(=O)c3Cl)C[C@@H]2F)c1 [P-0015, 4-chloro-5-((3S,4S)-3-fluoro-4-((4-(1-(2-hydroxy-2-methylpropyl)-3,5-dimethyl-1H-pyrazol-4-yl)pyridin-2-yl)oxy)pyrrolidin-1-yl)-2-(2-hydroxyethyl)pyridazin-3(2H)-one]	5.00 to 9.00	5.00 to 9.00
Cc1noc(C)c1-c1cc(F)nc(O[C@@H]2CCN(c3cn[nH]c(=O)c3Cl)C2)c1 [P-0195, (R)-4-chloro-5-(3-((4-(3,5-dimethylisoxazol-4-yl)-6-fluoropyridin-2-yl)oxy)pyrrolidin-1-yl)pyridazin-3(2H)-one]	5.00 to 9.00	5.00 to 9.00
O=C(Nc1ccc(-c2ccnc(O[C@@H]3CCN(c4cn[nH]c(=O)c4Cl)C3)c2)c(F)c1)C1CCC1 [P-0212, (R)-N-(4-(2-((1-(5-chloro-6-oxo-1,6-dihydropyridazin-4-yl)pyrrolidin-3-yl)oxy)pyridin-4-yl)-3-fluorophenyl)cyclobutane-carboxamide]	5.00 to 9.00	5.00 to 9.00
Cc1nn(C)c(C)c1-c1cc(F)nc(O[C@@H]2CCN(c3cn[nH]c(=O)c3Cl)C2)c1 [P-0200, (R)-4-chloro-5-(3-((6-fluoro-4-(1,3,5-trimethyl-1H-pyrazol-4-yl)pyridin-2-yl)oxy)pyrrolidin-1-yl)pyridazin-3(2H)-one]	5.00 to 9.00	5.00 to 9.00
Cn1ncc(Cl)c1-c1ccnc(O[C@@H]2CCN(c3cn[nH]c(=O)c3Cl)C2)c1 [P-0155, (R)-4-chloro-5-(3-((4-(4-chloro-1-methyl-1H-pyrazol-5-yl)pyridin-2-yl)oxy)pyrrolidin-1-yl)pyridazin-3(2H)-one]	5.00 to 9.00	5.00 to 9.00
O=c1[nH]ncc(N2CC[C@@H](Oc3cc(-c4c(F)cc(S(=O)(=O)NC5CC5)cc4F)ccn3)C2)c1Cl [P-0207, (R)-4-(2-((1-(5-chloro-6-oxo-1,6-dihydropyridazin-4-yl)pyrrolidin-3-yl)oxy)pyridin-4-yl)-N-cyclopropyl-3,5-difluorobenzenesulfonamide]	5.00 to 9.00	5.00 to 9.00
Cc1nn(CCO)c(C)c1-c1ccnc(O[C@@H]2CCN(c3cn[nH]c(=O)c3Cl)C2)c1 [P-0076, (R)-4-chloro-5-(3-((4-(1-(2-hydroxyethyl)-3,5-dimethyl-1H-pyrazol-4-yl)pyridin-2-yl)oxy)pyrrolidin-1-yl)pyridazin-3(2H)-one]	5.00 to 9.00	5.00 to 9.00

Next, values leading:

pIC50 [1]	pIC50 (human CD73)	SMILES
5.00 to 9.00	5.00 to 9.00	Cc1nn(C)c(C)c1-c1cc(O[C@@H]2CCN(c3cn[nH]c(=O)c3Cl)C2)nc(N)n1 [P-0089, (R)-5-(3-((2-amino-6-(1,3,5-trimethyl-1H-pyrazol-4-yl)pyrimidin-4-yl)oxy)pyrrolidin-1-yl)-4-chloropyridazin-3(2H)-one]
5.00 to 9.00	5.00 to 9.00	O=c1[nH]ncc(N2CC[C@@H](Oc3cc(N4CCN(S(=O)(=O)NC5CC5)CC4)ccn3)C2)c1Cl [P-0229, (R)-4-(2-((1-(5-chloro-6-oxo-1,6-dihydropyridazin-4-yl)pyrrolidin-3-yl)oxy)pyridin-4-yl)-N-cyclopropylpiperazine-1-sulfonamide]
5.00 to 9.00	5.00 to 9.00	Cc1nn(CC(C)(CO)CCl)c(C)c1-c1cc(F)nc(O[C@@H]2CCN(c3cn[nH]c(=O)c3Cl)C2)c1 (stereo partly drawn) [P-0185, 4-chloro-5-((3R)-3-((4-(1-(3-chloro-2-(hydroxymethyl)-2-methylpropyl)-3,5-dimethyl-1H-pyrazol-4-yl)-6-fluoropyridin-2-yl)oxy)pyrrolidin-1-yl)pyridazin-3(2H)-one]
5.00 to 9.00	5.00 to 9.00	CC1(C)CCCN1c1ccnc(O[C@@H]2CCN(c3cn[nH]c(=O)c3Cl)C2)c1 [P-0079, (R)-4-chloro-5-(3-((4-(2,2-dimethylpyrrolidin-1-yl)pyridin-2-yl)oxy)pyrrolidin-1-yl)pyridazin-3(2H)-one]
5.00 to 9.00	5.00 to 9.00	Cc1nn(CC2(C)COC2)c(C)c1-c1ccnc(O[C@H]2CN(c3cn[nH]c(=O)c3Cl)C[C@@H]2F)c1 [P-0096, 4-chloro-5-((3S,4S)-3-((4-(3,5-dimethyl-1-((3-methyloxetan-3-yl)methyl)-1H-pyrazol-4-yl)pyridin-2-yl)oxy)-4-fluoropyrrolidin-1-yl)pyridazin-3(2H)-one]

Reference: patent publication US12202818B2, “Compounds and methods for CD73 modulation and indications therefor” (Opna Bio SA, priority 2020, dated 2025)
